Laboratory results from US20140155384A1, “COMPOUNDS AND METHODS OF TREATING DIABETES” (Medivation Technologies, Inc., priority 2011, published 2014).

What was measured:
[1] = biological target: T1, human recombinant adrenergic α1D receptor (Homo sapiens, UniProt P25100); experiment: Radioligand binding, adrenergic α1D receptor ([3H]Prazosin); settings: 0.1 μM compound; HEK-293 cells; 0.6 nM [3H]Prazosin; read-out: Percentage inhibition of ligand binding, Adrenergic α1D
T1 construct: expressed in transfected cells; host or cells: HEK-293
T1 sequence (P25100 1-572): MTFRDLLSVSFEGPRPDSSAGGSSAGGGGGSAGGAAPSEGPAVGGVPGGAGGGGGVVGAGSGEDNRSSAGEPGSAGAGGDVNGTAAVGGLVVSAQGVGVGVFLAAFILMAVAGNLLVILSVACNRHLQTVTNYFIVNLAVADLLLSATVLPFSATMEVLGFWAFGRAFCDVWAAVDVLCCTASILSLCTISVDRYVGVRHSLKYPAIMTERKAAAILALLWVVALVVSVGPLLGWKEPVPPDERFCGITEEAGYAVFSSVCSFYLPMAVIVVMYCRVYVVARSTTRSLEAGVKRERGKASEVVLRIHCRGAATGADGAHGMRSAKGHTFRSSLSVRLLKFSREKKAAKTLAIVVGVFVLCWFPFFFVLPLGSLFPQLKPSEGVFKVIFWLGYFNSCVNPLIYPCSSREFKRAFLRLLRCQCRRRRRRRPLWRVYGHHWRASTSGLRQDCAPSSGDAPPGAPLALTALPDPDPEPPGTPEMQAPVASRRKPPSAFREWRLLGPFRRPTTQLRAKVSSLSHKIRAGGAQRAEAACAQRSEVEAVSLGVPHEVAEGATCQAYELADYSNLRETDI
Procedure: Compounds were incubated with 0.6 nM [3H]Prazosin for 60 min at 25° C. Non-specific binding was estimated in the presence of 10 μM phentolamine. Receptor proteins were filtered and washed, the filters were then counted to determine [3H]Prazosin specifically bound. Compounds were screened at 1 μM or lower, using 1% DMSO as vehicle. Biochemical assay results are presented as the percent inhibition of specific binding in Table 2.

[2] = biological target: T2, human recombinant adrenergic α2A receptor (Homo sapiens, UniProt P08913); experiment: Radioligand binding, adrenergic α2A receptor ([3H]MK-912); settings: 0.1 μM compound; Sf9 cells; 1 nM [3H]MK-912; read-out: Percentage inhibition of ligand binding, Adrenergic α2A
T2 construct: expressed in transfected cells; host or cells: insect Sf9 cells
T2 sequence (P08913 1-465): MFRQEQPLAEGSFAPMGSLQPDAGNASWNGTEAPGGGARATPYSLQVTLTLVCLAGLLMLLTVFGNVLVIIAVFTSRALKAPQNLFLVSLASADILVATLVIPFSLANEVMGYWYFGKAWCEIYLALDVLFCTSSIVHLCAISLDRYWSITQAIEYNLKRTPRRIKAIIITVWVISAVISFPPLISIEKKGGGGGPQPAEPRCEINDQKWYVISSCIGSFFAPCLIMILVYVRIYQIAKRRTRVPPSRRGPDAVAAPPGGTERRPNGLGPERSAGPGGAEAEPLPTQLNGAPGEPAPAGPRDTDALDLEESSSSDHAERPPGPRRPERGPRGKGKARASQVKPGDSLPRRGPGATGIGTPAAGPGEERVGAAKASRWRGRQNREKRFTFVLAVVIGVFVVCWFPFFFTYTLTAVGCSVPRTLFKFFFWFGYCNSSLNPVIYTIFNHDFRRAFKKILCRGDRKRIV
Procedure, shortened: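 Percent inhibition of specific [3H]MK-912 (1 nM) binding measured by filtration counting, compounds tested at ≤1 μM in 1% DMSO. Receptor: human α2A from Sf9 cells; incubation 60 min, 25 °C, pH 7.4; 10 μM WB-4101 defined nonspecific binding.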

[3] = biological target: T3, rat adrenergic α1B receptor (Rattus norvegicus, UniProt P15823); experiment: Radioligand binding, adrenergic α1B receptor ([3H]Prazosin); settings: 0.1 μM compound, Wistar rat liver, read-out: Percentage inhibition of ligand binding, Adrenergic α1B
T3 construct: rat adrenergic α1B receptor obtained from Wistar Rat liver; from tissue; host or cells: Wistar rat liver
T3 sequence (P15823 1-515): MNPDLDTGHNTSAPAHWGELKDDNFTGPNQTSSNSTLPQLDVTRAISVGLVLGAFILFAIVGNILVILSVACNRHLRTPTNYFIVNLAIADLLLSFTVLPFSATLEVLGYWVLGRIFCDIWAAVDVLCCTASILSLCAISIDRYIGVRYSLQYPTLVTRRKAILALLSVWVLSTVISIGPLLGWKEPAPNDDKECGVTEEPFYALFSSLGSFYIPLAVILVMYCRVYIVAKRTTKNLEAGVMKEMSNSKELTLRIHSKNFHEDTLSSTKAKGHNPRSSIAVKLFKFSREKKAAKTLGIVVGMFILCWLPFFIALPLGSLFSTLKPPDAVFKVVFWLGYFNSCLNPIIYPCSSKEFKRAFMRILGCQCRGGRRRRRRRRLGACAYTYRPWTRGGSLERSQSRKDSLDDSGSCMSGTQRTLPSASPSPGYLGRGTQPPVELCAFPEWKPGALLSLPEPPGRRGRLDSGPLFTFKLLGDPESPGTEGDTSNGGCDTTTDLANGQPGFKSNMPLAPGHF
Procedure, shortened: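 Wistar rat liver α1B receptor preparation incubated with 0.25 nM [3H]prazosin and compound for 60 min at 25° C in 50 mM Tris-HCl pH 7.4, 0.5 mM EDTA; nonspecific binding defined with 10 μM phentolamine.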

[4] = biological target: T4, human recombinant adrenergic α2B receptor (Homo sapiens, UniProt P18089); experiment: Radioligand binding, adrenergic α2B receptor ([3H]Rauwolscine); settings: 0.1 μM compound, CHO-K1 cells, read-out: Percentage inhibition of ligand binding, Adrenergic α2B
T4 construct: expressed in transfected cells; host or cells: CHO-K1
T4 sequence (P18089 1-450): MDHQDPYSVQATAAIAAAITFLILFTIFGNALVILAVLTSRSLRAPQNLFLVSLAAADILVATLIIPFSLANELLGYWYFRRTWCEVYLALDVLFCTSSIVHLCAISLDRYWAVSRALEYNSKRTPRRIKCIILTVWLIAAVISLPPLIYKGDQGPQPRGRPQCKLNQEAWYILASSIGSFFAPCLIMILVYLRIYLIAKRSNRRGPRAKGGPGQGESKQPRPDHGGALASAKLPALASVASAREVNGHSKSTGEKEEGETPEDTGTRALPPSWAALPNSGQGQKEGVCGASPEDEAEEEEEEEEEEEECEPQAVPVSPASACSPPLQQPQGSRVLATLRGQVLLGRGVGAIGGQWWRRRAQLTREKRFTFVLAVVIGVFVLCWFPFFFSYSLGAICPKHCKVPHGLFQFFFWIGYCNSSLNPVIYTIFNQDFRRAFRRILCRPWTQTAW
Procedure, shortened: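 Percent inhibition of specific [3H]Rauwolscine (2.5 nM) binding, compounds at ≤1 μM, 1% DMSO vehicle, 10 μM prazosin defining nonspecific. Receptor: human α2B expressed in CHO-K1 cells, 60 min incubation at 25 °C in Tris-HCl pH 7.4 buffer (MgCl2, EDTA, BSA); filtered, washed, counted.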

| SMILES | inhibition at 0.1 µM [1] | inhibition at 0.1 µM [2] | inhibition at 0.1 µM [3] | inhibition at 0.1 µM [4] |
| --- | --- | --- | --- | --- |
| Cc1ccc2c(c1)c1c(n2-c2ccccc2-c2sccc2C)CCN(C)C1 [Compound No. 102, 2,8-dimethyl-5-(2-(3-methylthiophen-2-yl)phenyl)-2,3,4,5-tetrahydro-1H-pyrido[4,3-b]indole] | 50% | 85% | 57% | 90% |
| CC(=O)Nc1ccc(-c2cccc(-n3c4c(c5cc(C)ccc53)CN(C)CC4)c2)cn1 [Compound 45, N-(5-(3-(2,8-dimethyl-3,4-dihydro-1H-pyrido[4,3-b]indol-5(2H)-yl)phenyl)pyridin-2-yl)acetamide] | 1% | 12% | 1% | 6% |
| Cc1ccc2c(c1)c1c(n2-c2cscc2-c2ccc(O)nc2)CCN(C)C1 [Compound 49] | 14% | -3% | 12% | 31% |
| Cc1ccc2c(c1)c1c(n2-c2ccccc2-c2ccnn2C)CCN(C)C1 [Compound 32] | 65% | 72% | 73% | 80% |
| Cc1ccc2c(c1)c1c(n2-c2cccc(-c3ccnn3C)c2)CCN(C)C1 [Compound No. 66, 2,8-dimethyl-5-(3-(1-methyl-1H-pyrazol-5-yl)phenyl)-2,3,4,5-tetrahydro-1H-pyrido[4,3-b]indole] | 11% | 39% | 13% | 18% |
| Cc1ccc2c(c1)c1c(n2-c2cccc(-c3ccc(S(C)(=O)=O)cc3)c2)CCN(C)C1 [Compound No. 131, 2,8-dimethyl-5-(4′-(methylsulfonyl)biphenyl-3-yl)-2,3,4,5-tetrahydro-1H-pyrido[4,3-b]indole] | 3% | 75% | 0% | 28% |
| Cc1ccc2c(c1)c1c(n2-c2ccc(-c3cccc4[nH]ncc34)cn2)CCN(C)C1 [Compound No. 147, 5-(5-(1H-indazol-4-yl)pyridin-2-yl)-2,8-dimethyl-2,3,4,5-tetrahydro-1H-pyrido[4,3-b]indole] | 61% | 46% | 72% | 43% |
| Cc1ccc2c(c1)c1c(n2-c2cccc(-c3cc4ccccc4s3)c2)CCN(C)C1 [Compound 51, 5-(3-(benzo[b]thiophen-2-yl)phenyl)-2,8-dimethyl-2,3,4,5-tetrahydro-1H-pyrido[4,3-b]indole] | 12% | 27% | 10% | 7% |
| Cc1ccc2c(c1)c1c(n2-c2cscc2-c2cc3ccccc3s2)CCN(C)C1 [Compound No. 151] | 67% | 96% | 59% | 99% |
| Cc1ccc2c(c1)c1c(n2-c2cccc(-c3ccc(C)nc3)c2)CCN(C)C1 [Compound 60, 2,8-dimethyl-5-(3-(6-methylpyridin-3-yl)phenyl)-2,3,4,5-tetrahydro-1H-pyrido[4,3-b]indole] | 9% | 62% | 4% | 14% |
| CNC(=O)c1ccc(-c2cscc2-n2c3c(c4cc(C)ccc42)CN(C)CC3)cc1 [Compound No. 155] | 63% | 9% | 43% | 74% |
| Cc1ccc2c(c1)c1c(n2-c2ccc(-c3ccc4c(ccn4C)c3)cn2)CCN(C)C1 [Compound No. 136, 2,8-dimethyl-5-(5-(1-methyl-1H-indol-5-yl)pyridin-2-yl)-2,3,4,5-tetrahydro-1H-pyrido[4,3-b]indole] | 59% | 59% | 70% | 105% |
| Cc1csc(-c2cccc(-n3c4c(c5cc(C)ccc53)CN(C)CC4)c2)c1 [Compound No. 63, 2,8-dimethyl-5-(3-(4-methylthiophen-2-yl)phenyl)-2,3,4,5-tetrahydro-1H-pyrido[4,3-b]indole] | 5% | 30% | 2% | 11% |
| Cc1ccc2c(c1)c1c(n2-c2cscc2-c2cccc3[nH]ncc23)CCN(C)C1 [Compound 41] | 76% | 87% | 77% | 70% |
| Cc1ccc2c(c1)c1c(n2-c2ccsc2)CCN(C)C1 [Compound 14, 2,8-dimethyl-5-thiophen-3-yl-2,3,4,5-tetrahydro-1H-pyrido[4,3-b]indole] | 20% | 23% | 38% | 51% |
| Cc1ccc2c(c1)c1c(n2-c2ccccc2-c2cc3ccccc3s2)CCN(C)C1 [Compound No. 103, 5-(2-(benzo[b]thiophen-2-yl)phenyl)-2,8-dimethyl-2,3,4,5-tetrahydro-1H-pyrido[4,3-b]indole] | 62% | 98% | 41% | 97% |
| Cc1ccc2c(c1)c1c(n2-c2ccccc2-c2cncc3ccccc23)CCN(C)C1 [Compound No. 87, 5-(2-(isoquinolin-4-yl)phenyl)-2,8-dimethyl-2,3,4,5-tetrahydro-1H-pyrido[4,3-b]indole] | 16% | 30% | 13% | 18% |
